Assays:
[1] = AZA in mouse model of HCL with transplantation of donor hematopoietic cells; type: in vivo, mice; details: AZA 5 mg/kg for 5 days followed by transplantation
Procedure: Wildtype and HCL mice were treated with AZA 5 mg/kg for 5 days following by transplantation of donor hematopoietic cells. % myeloid donor chimerism was assessed by flow cytometry at 4- and 16-weeks post transplantation.

donor HSC engraftment = experiment: Allogeneic (minor MHC-mismatched) transplantation, donor chimerism in peripheral blood; type: in vivo, BALB.B mice
Procedure: A. Schematic of allogeneic transplantation protocol. BALB.B mice (H-2^b, Thy1.2, CD45.2) were recipients for B6 donors (H-2b, Thy1.1, CD45.1); ACK2 was injected 10 days prior transplantation, AZA was administered days −5 through −1 in dose 2.5 or 5 mg/kg/d, anti-CD4/CD8 were injected in dose 100 μg at days −2, −1 and at the day of transplant (day 0); recipients received 15×10^6 WBM cells or 5×10^4 LSK at d0; chimerism analysis was assessed by flow cytometry using CD45 marker to distinguish between donor and recipient total, myeloid (Gr1^+Mac1^+), B-cells (CD19^+CD3^−) and T-cells (CD19^−CD3^+). B. Multilineage donor-derived chimerism after conditioning with ACK2, AZA 2.5 mg/kg, AZA 5 mg/kg or their combination and transplantation of 15×10^6WBM cells. Chimerism levels from peripheral blood are shown at 4, 14 and 26 weeks post-HCT. Data represent mean±SD (n=4 per group). C. Multilineage donor-derived chimerism in peripheral blood at 4, 14 and 26 weeks following conditioning with single agent ACK2, single agent AZA 5 mg/kg/d or their combination and transplantation of 5×10^4 Lin^− Sca1^+c-Kit^+ cells (LSK). Data represent mean±SD (n=3-5 per group) between the donor and recipient.
Mice. […]
Bone marrow cell preparation and HSC isolation for transplantation experiments. […] Cells were filtered through 70-μm filter, lysed in ACK lysis buffer and counted on Invitrogen Countess. […]

With `Nc1ncn([C@@H]2O[C@H](CO)[C@@H](O)[C@H]2O)c(=O)n1` [AZA, 5-Azacytidine] the therapeutic activity [1] was “shows therapeutic activity”, the donor engraftment (donor HSC engraftment; AZA 5 mg/kg/d, anti-CD4/CD8, 15×10^6 allogeneic WBM cells) was “successful donor engraftment was achieved” and the “total donor chimerism over time” value (donor HSC engraftment; AZA alone group, 15×10^6 allogeneic WBM cells) was “noted to decrease”.

Source: US12564609B2, “Hematopoietic stem cell engraftment with a combination of agents” (The Board of Trustees of the Leland Stanford Junior …, priority 2020, dated 2026)
